As a reminder, the MIC is the smallest concentration in the dilution series that meets the test's criterion for growth inhibition. The low end stands for greater potency, the high end for weaker potency.

Converted amounts (≈) assume the structure as drawn.

For this assay, the system named is M. tuberculosis sp. 210. The experiment in a line: Tuberculostatic activity, classical test-tube method of successive dilution. The assay is classed as cell-based. The note with it: Mycobacterium tuberculosis; sp. 210, wild strain resistant to PAS, INH, ETB, RFP.
Take `NC(=NS(=O)(=O)c1cnccc1Cl)c1ccccn1` [Compound 2, N′-[(4-Chloropyridin-3-yl)sulfonyl]-2-pyridinecarboximidamide]: 50 µg/mL (≈ 168 µM) was the least that counted as inhibitory (MIC).

In turn, `NC(=NS(=O)(=O)c1ccccc1Cl)c1ncccn1` [Compound 7, N′-[(2-Chlorophenyl)sulfonyl]pyrimidine-2-carboximidamide] showed an MIC of 50 µg/mL (≈ 168 µM). `NC(=NS(=O)(=O)c1cnccc1Cl)c1ncccn1` [Compound 8, N′-[(4-Chloropyridin-3-yl)sulfonyl]pyrimidine-2-carboximidamide] had an MIC of 50 µg/mL (≈ 168 µM).

For the compound `NC(=NS(=O)(=O)c1cnccc1Cl)c1cnccn1` [Compound 10, N′-[(4-Chloropyridin-3-yl)sulfonyl]pyrazine-2-carboximidamide], the MIC turned out to be 50 µg/mL (≈ 168 µM). As for `NNC(=O)c1ccncc1` [INH, isoniazid, reference compound], the figure is 1.1 µg/mL (≈ 8.02 µM).

For the origin of these results see PMC4494771, “Synthesis, structure, and biological activity of novel heterocyclic sulfonyl-carboximidamides” (Monatshefte Fur Chemie, 2013).
